Patent US20240148723A1, “MYCOBACTERIUM TUBERCULOSIS COMPOSITIONS AND METHODS” (priority 2021, published 2024)
≈ marks a conversion by molar mass, not a printed value.

The molecules below were run on M. tuberculosis. Conditions: pH 6.8.
Assay type: cell-based, Mycobacterium tuberculosis
In the case of CCOC(=O)CCCCCCCCCCCCC1C=CCC1 (centres unmarked) [compound 38010], the “MIC in the media 7H9” value is reported as at least 30.85 mg/L, the “MIC in the media L-Ala” value is reported as 3.86 mg/L (≈ 12.5 µM) and the “MIC in the media SBA” value is reported as 1.93 mg/L (≈ 6.26 µM). For the same molecule, the “MIC in the media SLac” value was 1.93 mg/L (≈ 6.26 µM).
COC(C(=O)C(O)C(C)O)C1Cc2cc3cc(OC4CC(OC(C)=O)C(OC5CC(O)C(OC)C(C)O5)C(C)O4)cc(O)c3c(O)c2C(=O)C1OC1CC(OC2CC(OC3CC(C)(O)C(OC(=O)C(C)C)C(C)O3)C(O)C(C)O2)C(O)C(C)O1 (centres unmarked) [compound 38270] was tested, and the “MIC in the media 7H9” value was at least 59.87 mg/L, the “MIC in the media L-Ala” value was 7.48 mg/L (≈ 6.25 µM) and the “MIC in the media SBA” value was 3.83 mg/L (≈ 3.2 µM). For the same molecule, the “MIC in the media SLac” value was 3.83 mg/L (≈ 3.2 µM).
With NC(=O)c1ccccc1N [compound 38768] the “MIC in the media 7H9” value was at least 54.48 mg/L, the “MIC in the media L-Ala” value was 54.48 mg/L (≈ 400 µM) and the “MIC in the media SBA” value was 54.48 mg/L (≈ 400 µM). For the same molecule, the “MIC in the media SLac” value was 54.48 mg/L (≈ 400 µM).
With O=C(O)c1cc2ccccc2cc1Nc1ccccc1 [compound 40275] the “MIC in the media 7H9” value was at least 26.33 mg/L, the “MIC in the media L-Ala” value was 3.29 mg/L (≈ 12.5 µM) and the “MIC in the media SBA” value was 3.29 mg/L (≈ 12.5 µM). For the same molecule, the “MIC in the media SLac” value was 0.84 mg/L (≈ 3.19 µM).
Cc1c(Cl)ccc2c(C(=O)O)cc(-c3ccccc3)nc12 [compound 40306] was tested, and the “MIC in the media 7H9” value was at least 29.77 mg/L, the “MIC in the media L-Ala” value was 7.44 mg/L (≈ 25 µM) and the “MIC in the media SBA” value was 7.44 mg/L (≈ 25 µM). For the same molecule, the “MIC in the media SLac” value was 3.72 mg/L (≈ 12.5 µM).
With CCOC(=O)c1ccc(N)cc1 [compound 41531] the “MIC in the media 7H9” value was at least 800 mg/L, the “MIC in the media L-Ala” value was 0.26 mg/L (≈ 1.57 µM) and the “MIC in the media SBA” value was 0.26 mg/L (≈ 1.57 µM). For the same molecule, the “MIC in the media SLac” value was 0.26 mg/L (≈ 1.57 µM).
Nc1cc(Nc2ccc(Br)cc2)nc(N)n1 [compound 42135] was tested, and the “MIC in the media 7H9” value was at least 28.01 mg/L, the “MIC in the media L-Ala” value was 7.00 mg/L (≈ 25 µM) and the “MIC in the media SBA” value was 14.01 mg/L (≈ 50 µM). For the same molecule, the “MIC in the media SLac” value was 3.50 mg/L (≈ 12.5 µM).
With O=C1C[C@@H](c2ccccc2)Oc2cc(O)cc(O)c21 [compound 43318] the “MIC in the media 7H9” value was at least 101.70 mg/L, the “MIC in the media L-Ala” value was 6.36 mg/L (≈ 24.8 µM) and the “MIC in the media SBA” value was 6.36 mg/L (≈ 24.8 µM). The “MIC in the media SLac” value was 0.41 mg/L (≈ 1.6 µM).
With O=C1C(O)=C(c2ccccc2)C(=O)C(O)=C1c1ccccc1 [compound 44175] the “MIC in the media 7H9” value was at least 29.23 mg/L, the “MIC in the media L-Ala” value was 7.31 mg/L (≈ 25 µM) and the “MIC in the media SBA” value was 3.65 mg/L (≈ 12.5 µM). The “MIC in the media SLac” value was 3.65 mg/L (≈ 12.5 µM).
CN(CC(=O)O)Cc1c(O)c(Cl)cc(Cl)c1Cl [compound 45114] was tested, and the “MIC in the media 7H9” value was at least 119.40 mg/L, the “MIC in the media L-Ala” value was 29.85 mg/L (≈ 100 µM) and the “MIC in the media SBA” value was 14.93 mg/L (≈ 50 µM). For the same molecule, the “MIC in the media SLac” value was 3.73 mg/L (≈ 12.5 µM).
For C=C1C(=O)OC2CC1C(OC(C)=O)C/C(C)=C/CC/C(C)=C\CCC2(C)O (centres unmarked) [compound 46728], the “MIC in the media 7H9” value was at least 75.30 mg/L, the “MIC in the media L-Ala” value was 37.65 mg/L (≈ 100 µM) and the “MIC in the media SBA” value was 9.41 mg/L (≈ 25 µM). For the same molecule, the “MIC in the media SLac” value was 4.71 mg/L (≈ 12.5 µM).
For c1ccc(Sc2ncnc3ccccc23)cc1 [compound 51331], the “MIC in the media 7H9” value was at least 23.83 mg/L, the “MIC in the media L-Ala” value was 11.92 mg/L (≈ 50 µM) and the “MIC in the media SBA” value was 11.92 mg/L (≈ 50 µM). The “MIC in the media SLac” value was 2.98 mg/L (≈ 12.5 µM).
With Oc1ccc(Cl)cc1Sc1cc(Cl)ccc1O [compound 55636] the “MIC in the media 7H9” value was at least 114.88 mg/L, the “MIC in the media L-Ala” value was 1.80 mg/L (≈ 6.27 µM) and the “MIC in the media SBA” value was 0.92 mg/L (≈ 3.2 µM). For the same molecule, the “MIC in the media SLac” value was 0.92 mg/L (≈ 3.2 µM).
In the case of COC12C(COC(N)=O)C3=C(C(=O)C(C)=C(N)C3=O)N1CC1C2N1C (centres unmarked) [compound 56410], the “MIC in the media 7H9” value is reported as at least 0.28 mg/L, the “MIC in the media L-Ala” value is reported as 0.28 mg/L (≈ 0.804 µM) and the “MIC in the media SBA” value is reported as 0.28 mg/L (≈ 0.804 µM). The “MIC in the media SLac” value was 0.56 mg/L (≈ 1.61 µM).
With COc1ccc(C(=O)c2ccccc2O)c(O)c1 [compound 56769] the “MIC in the media 7H9” value was at least 97.70 mg/L, the “MIC in the media L-Ala” value was 24.42 mg/L (≈ 100 µM) and the “MIC in the media SBA” value was 24.42 mg/L (≈ 100 µM). For the same molecule, the “MIC in the media SLac” value was 0.76 mg/L (≈ 3.11 µM).
In the case of O=[N+]([O-])c1cc([N+](=O)[O-])c2cccnc2c1O [compound 57103], the “MIC in the media 7H9” value is reported as at least 23.52 mg/L, the “MIC in the media L-Ala” value is reported as 0.75 mg/L (≈ 3.19 µM) and the “MIC in the media SBA” value is reported as 0.75 mg/L (≈ 3.19 µM). For the same molecule, the “MIC in the media SLac” value was 0.75 mg/L (≈ 3.19 µM).
For COc1ccc(C2CC(=O)c3c(O)cc(O)cc3O2)cc1O (centres unmarked) [compound 57654], the “MIC in the media 7H9” value was at least 120.91 mg/L, the “MIC in the media L-Ala” value was 7.56 mg/L (≈ 25 µM) and the “MIC in the media SBA” value was 7.56 mg/L (≈ 25 µM). For the same molecule, the “MIC in the media SLac” value was 1.89 mg/L (≈ 6.25 µM).
In the case of O=c1[nH]c(=S)[nH]cc1Oc1ccc(Cl)cc1Cl [compound 73753], the “MIC in the media 7H9” value is reported as at least 115.66 mg/L, the “MIC in the media L-Ala” value is reported as 14.46 mg/L (≈ 50 µM) and the “MIC in the media SBA” value is reported as 14.46 mg/L (≈ 50 µM). For the same molecule, the “MIC in the media SLac” value was 1.81 mg/L (≈ 6.26 µM).
With CC[C@@H](O)C[C@H]1CCC[C@@]2(C[C@@H]3OC(=O)/C=C/[C@@](C)(O)[C@@H](O)[C@H](C)[C@@H](O)[C@H](OC4CCC(N(C)C)C(C)O4)[C@@H](O)[C@](C)(O)CCCCC/C=C/[C@@H]4CC(C)(C)O[C@@]4(O)C[C@H](O2)[C@H]3C)O1 (some centres unmarked) [compound 76627] the “MIC in the media 7H9” value was at least 22.81 mg/L, the “MIC in the media L-Ala” value was 5.7 mg/L (≈ 6.25 µM) and the “MIC in the media SBA” value was 11.4 mg/L (≈ 12.5 µM). The “MIC in the media SLac” value was 5.7 mg/L (≈ 6.25 µM).
For CCOC(CNCc1cc(C)c2[nH]c3ccccc3c2c1C)OCC [compound 79486], the “MIC in the media 7H9” value was at least 17.03 mg/L, the “MIC in the media L-Ala” value was 8.51 mg/L (≈ 25 µM) and the “MIC in the media SBA” value was 8.51 mg/L (≈ 25 µM). The “MIC in the media SLac” value was 2.13 mg/L (≈ 6.26 µM).
Cc1ccc(NC(c2ccccc2)c2ccc3cccnc3c2O)cc1 (centres unmarked) [compound 84093] was tested, and the “MIC in the media 7H9” value was at least 136.16 mg/L, the “MIC in the media L-Ala” value was 17.02 mg/L (≈ 50 µM) and the “MIC in the media SBA” value was 2.13 mg/L (≈ 6.26 µM). The “MIC in the media SLac” value was 2.13 mg/L (≈ 6.26 µM).
For CCCCc1oc2ccccc2c1C(=O)c1cc(I)c(OCCN(CC)CC)c(I)c1.Cl [compound 85442], the “MIC in the media 7H9” value was at least 8.52 mg/L, the “MIC in the media L-Ala” value was 4.26 mg/L and the “MIC in the media SBA” value was 2.18 mg/L. For the same molecule, the “MIC in the media SLac” value was 1.09 mg/L.
With OC(COc1ccc(Cl)cc1)CN1CCN(c2cccc(Cl)c2)CC1 (centres unmarked) [compound 91340] the “MIC in the media 7H9” value was at least 38.13 mg/L, the “MIC in the media L-Ala” value was 4.77 mg/L (≈ 12.5 µM) and the “MIC in the media SBA” value was 9.53 mg/L (≈ 25 µM). The “MIC in the media SLac” value was 4.77 mg/L (≈ 12.5 µM).
For Sc1nc2cc(-c3ccccc3)ccc2o1 [compound 93817], the “MIC in the media 7H9” value was at least 22.73 mg/L, the “MIC in the media L-Ala” value was 1.42 mg/L (≈ 6.25 µM) and the “MIC in the media SBA” value was 0.73 mg/L (≈ 3.21 µM). The “MIC in the media SLac” value was 0.73 mg/L (≈ 3.21 µM).
Nc1ccc(N=Nc2ccc(O)cc2)c(N)n1 [compound 108235] was tested, and the “MIC in the media 7H9” value was at least 22.92 mg/L, the “MIC in the media L-Ala” value was 11.46 mg/L (≈ 50 µM) and the “MIC in the media SBA” value was 11.46 mg/L (≈ 50 µM). The “MIC in the media SLac” value was 5.73 mg/L (≈ 25 µM).
In the case of CCC(C)c1occ2c(O)c(C(=O)O)c(=O)cc-2c1C (centres unmarked) [compound 114344], the “MIC in the media 7H9” value is reported as at least 110.51 mg/L, the “MIC in the media L-Ala” value is reported as 27.63 mg/L (≈ 100 µM) and the “MIC in the media SBA” value is reported as 6.91 mg/L (≈ 25 µM). For the same molecule, the “MIC in the media SLac” value was 1.73 mg/L (≈ 6.26 µM).
In the case of C1C2CC3C1C3/C2=N\N=C1/C2CC3C(C2)C13 [compound 122987], the “MIC in the media 7H9” value is reported as at least 88.52 mg/L, the “MIC in the media L-Ala” value is reported as 1.38 mg/L (≈ 6.5 µM) and the “MIC in the media SBA” value is reported as 11.06 mg/L (≈ 52.1 µM). The “MIC in the media SLac” value was 5.53 mg/L (≈ 26 µM).
COc1ccc(-c2coc3cc(O)cc(O)c3c2=O)cc1 [compound 123538] was tested, and the “MIC in the media 7H9” value was at least 113.70 mg/L, the “MIC in the media L-Ala” value was 7.11 mg/L (≈ 25 µM) and the “MIC in the media SBA” value was 7.11 mg/L (≈ 25 µM). The “MIC in the media SLac” value was 0.45 mg/L (≈ 1.58 µM).
With NN=C1C(Cl)=C(Cl)C(Cl)=C1Cl [compound 126405] the “MIC in the media 7H9” value was at least 23.19 mg/L, the “MIC in the media L-Ala” value was 5.80 mg/L (≈ 25 µM) and the “MIC in the media SBA” value was 5.80 mg/L (≈ 25 µM). For the same molecule, the “MIC in the media SLac” value was 5.80 mg/L (≈ 25 µM).
